Laboratory results published in PubChem BioAssay AID1963966 (Molecular Pharmacology Branch, DTP, NCI, 2024).

System: 935938-334-R-J1-PDC spheroids with HUVEC/MSC, viability
Test: Anticancer human tumor 935938-334-R-J1-PDC patient-derived small intestine adenocarcinoma cell line growth inhibition [PI3K]
Details: for IC50: curve of first compound; for viability, T/C: stronger effect = lower value
Outline: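 Targeted small molecules plus PI3K inhibitors, half-log dose series from Cmax (default top 10 microM), were applied to heterotypic spheroids of cancer cells with HUVEC and MSCs. Viability indicated growth inhibition.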

[1] = second compound 0.0316 µM, first compound 0.0316 µM
[2] = second compound 0.0316 µM, first compound 0.1 µM
[3] = second compound 0.0316 µM, first compound 0.316 µM
[4] = second compound 0.0316 µM, first compound 1 µM
[5] = second compound 0.0316 µM, first compound 3.16 µM
[6] = second compound 0.0316 µM, first compound 10 µM
[7] = second compound 0.1 µM, first compound 0.0316 µM
[8] = second compound 0.1 µM, first compound 0.1 µM
[9] = second compound 0.1 µM, first compound 0.316 µM
[10] = second compound 0.1 µM, first compound 1 µM
[11] = second compound 0.1 µM, first compound 3.16 µM
[12] = second compound 0.1 µM, first compound 10 µM
[13] = second compound 0.316 µM, first compound 0.0316 µM
[14] = second compound 0.316 µM, first compound 0.1 µM
[15] = second compound 0.316 µM, first compound 0.316 µM
[16] = second compound 0.316 µM, first compound 1 µM
[17] = second compound 0.316 µM, first compound 3.16 µM
[18] = second compound 0.316 µM, first compound 10 µM
[19] = second compound 1 µM, first compound 0.0316 µM
[20] = second compound 1 µM, first compound 0.1 µM
[21] = second compound 1 µM, first compound 0.316 µM
[22] = second compound 1 µM, first compound 1 µM
[23] = second compound 1 µM, first compound 3.16 µM
[24] = second compound 1 µM, first compound 10 µM
[25] = second compound 3.16 µM, first compound 0.0316 µM
[26] = second compound 3.16 µM, first compound 0.1 µM
[27] = second compound 3.16 µM, first compound 0.316 µM
[28] = second compound 3.16 µM, first compound 1 µM
[29] = second compound 3.16 µM, first compound 3.16 µM
[30] = second compound 3.16 µM, first compound 10 µM
[31] = second compound 10 µM, first compound 0.0316 µM
[32] = second compound 10 µM, first compound 0.1 µM
[33] = second compound 10 µM, first compound 0.316 µM
[34] = second compound 10 µM, first compound 1 µM
[35] = second compound 10 µM, first compound 3.16 µM
[36] = second compound 10 µM, first compound 10 µM
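Further: compound exposure lasted seven days before viability was read.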
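Wherever viability, T/C is given: percent of vehicle DMSO treated spheroid viability so 100% = untreated.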

For `CC(Cn1ccc(-c2ccc(C#N)c(Cl)c2)n1)NC(=O)c1cc(C(C)O)[nH]n1` (stereo unspecified) + Cc1nc(NC(=O)N2CCCC2C(N)=O)sc1-c1ccnc(C(C)(C)C(F)(F)F)c1, the IC50 (second compound 0.0316 µM) was > 10 µM, the IC50 (second compound 0.1 µM) was > 10 µM and the IC50 (second compound 0.316 µM) was > 10 µM. The IC50 (second compound 1 µM) was > 10 µM, the IC50 (second compound 3.16 µM) was 0.4 µM and the IC50 (second compound 10 µM) was < 0.0316 µM. The viability, T/C [1] was 81.8%, the viability, T/C [2] was 101% and the viability, T/C [3] was 89.8%. For the same compound, the viability, T/C [4] was 91%, the viability, T/C [5] was 104% and the viability, T/C [6] was 78.3%. For the same compound, the viability, T/C [7] was 109%, the viability, T/C [8] was 72.3% and the viability, T/C [9] was 99.4%. It also gave a viability, T/C [10] of 77.2%, a viability, T/C [11] of 97.6% and a viability, T/C [12] of 75.6%. The viability, T/C [13] was 81.8%, the viability, T/C [14] was 81.6% and the viability, T/C [15] was 58.5%. The viability, T/C [16] was 82%, the viability, T/C [17] was 75.5% and the viability, T/C [18] was 84.8%. The viability, T/C [19] was 79.2%, the viability, T/C [20] was 79.6% and the viability, T/C [21] was 62.3%. It also gave a viability, T/C [22] of 65%, a viability, T/C [23] of 64.6% and a viability, T/C [24] of 47.7%. The viability, T/C [25] was 62.7%, the viability, T/C [26] was 61% and the viability, T/C [27] was 50.3%. The viability, T/C [28] was 44.3%, the viability, T/C [29] was 59.4% and the viability, T/C [30] was 43.9%. It also gave a viability, T/C [31] of 46.3%, a viability, T/C [32] of 42.6% and a viability, T/C [33] of 52.3%. It also gave a viability, T/C [34] of 51.8%, a viability, T/C [35] of 44.3% and a viability, T/C [36] of 40%.

Compound `C#Cc1c(F)ccc2cc(O)cc(-c3ncc4c(N5CC6CCC(C5)N6)nc(OCC56CCCN5CC(F)C6)nc4c3F)c12` (stereo unspecified) + CC(Nc1ccc2c(c1)OCCn1cc(N3C(=O)OCC3C(F)F)nc1-2)C(N)=O has an IC50 (second compound 0.00316 µM) of 3.79 µM, an IC50 (second compound 0.01 µM) of 3.11 µM and an IC50 (second compound 0.0316 µM) of 1.87 µM. The IC50 (second compound 0.1 µM) was 0.922 µM, the IC50 (second compound 0.316 µM) was 0.513 µM and the IC50 (second compound 1 µM) was 0.102 µM. The viability, T/C (second compound 0.00316 µM, first compound 0.0316 µM) was 86.7%, the viability, T/C (second compound 0.00316 µM, first compound 0.1 µM) was 88.4% and the viability, T/C (second compound 0.00316 µM, first compound 0.316 µM) was 76%. It also gave a viability, T/C (second compound 0.00316 µM, first compound 1 µM) of 67.9%, a viability, T/C (second compound 0.00316 µM, first compound 3.16 µM) of 52.8% and a viability, T/C (second compound 0.00316 µM, first compound 10 µM) of 36.1%. For the same compound, the viability, T/C (second compound 0.01 µM, first compound 0.0316 µM) was 106%, the viability, T/C (second compound 0.01 µM, first compound 0.1 µM) was 74% and the viability, T/C (second compound 0.01 µM, first compound 0.316 µM) was 80.1%. The viability, T/C (second compound 0.01 µM, first compound 1 µM) was 69.1%, the viability, T/C (second compound 0.01 µM, first compound 3.16 µM) was 52% and the viability, T/C (second compound 0.01 µM, first compound 10 µM) was 31.1%. It also gave a viability, T/C [1] of 94.7%, a viability, T/C [2] of 80.1% and a viability, T/C [3] of 83.2%. For the same compound, the viability, T/C [4] was 61.3%, the viability, T/C [5] was 39.7% and the viability, T/C [6] was 28.8%. It also gave a viability, T/C [7] of 89.1%, a viability, T/C [8] of 84.1% and a viability, T/C [9] of 47.5%. For the same compound, the viability, T/C [10] was 56.7%, the viability, T/C [11] was 39.7% and the viability, T/C [12] was 28.2%. It also gave a viability, T/C [13] of 67.6%, a viability, T/C [14] of 71% and a viability, T/C [15] of 60.7%. It also gave a viability, T/C [16] of 34.7%, a viability, T/C [17] of 31.3% and a viability, T/C [18] of 22.8%. The viability, T/C [19] was 49.5%, the viability, T/C [20] was 51.2% and the viability, T/C [21] was 47.5%. The viability, T/C [22] was 35.2%, the viability, T/C [23] was 25% and the viability, T/C [24] was 17.2%.

For `Cn1ncc(Cl)c1-c1cc(C(=O)NC(CN)Cc2cccc(F)c2)sc1Cl` (stereo unspecified) + CC(Nc1ncnc2nc[nH]c12)c1cc2cccc(Cl)c2c(=O)n1-c1ccccc1, the IC50 (second compound 0.0316 µM) was > 10 µM, the IC50 (second compound 0.1 µM) was > 10 µM and the IC50 (second compound 0.316 µM) was 3.11 µM. The IC50 (second compound 1 µM) was 2.71 µM, the IC50 (second compound 3.16 µM) was 1.76 µM and the IC50 (second compound 10 µM) was 0.271 µM. For the same compound, the viability, T/C [1] was 73%, the viability, T/C [2] was 91.4% and the viability, T/C [3] was 65.3%. It also gave a viability, T/C [4] of 65.4%, a viability, T/C [5] of 54.6% and a viability, T/C [6] of 51.3%. The viability, T/C [7] was 92.6%, the viability, T/C [8] was 88.9% and the viability, T/C [9] was 88.1%. For the same compound, the viability, T/C [10] was 63.2%, the viability, T/C [11] was 56.8% and the viability, T/C [12] was 58.1%. The viability, T/C [13] was 104%, the viability, T/C [14] was 128% and the viability, T/C [15] was 75%. It also gave a viability, T/C [16] of 78.4%, a viability, T/C [17] of 49.3% and a viability, T/C [18] of 34%. It also gave a viability, T/C [19] of 73.5%, a viability, T/C [20] of 97.8% and a viability, T/C [21] of 73.1%. For the same compound, the viability, T/C [22] was 61.6%, the viability, T/C [23] was 51.3% and the viability, T/C [24] was 36.3%. For the same compound, the viability, T/C [25] was 72.2%, the viability, T/C [26] was 74.1% and the viability, T/C [27] was 61.5%. It also gave a viability, T/C [28] of 47.9%, a viability, T/C [29] of 52.5% and a viability, T/C [30] of 33.2%. For the same compound, the viability, T/C [31] was 73.2%, the viability, T/C [32] was 83.9% and the viability, T/C [33] was 45.5%. The viability, T/C [34] was 52.7%, the viability, T/C [35] was 39.4% and the viability, T/C [36] was 34.5%.
